The values below come from publication PMC6813218 (Frontiers in Molecular Neuroscience, 2019).

For series [1], the system named is CB1R. Details: method as in Pamplona et al., 2012. The conditions noted are these: PAM of ligand binding and cAMP inhibition at CB1R; ref Pamplona et al., 2012; cited from earlier work.
In series [2] the target is T1, hCB1R (Homo sapiens, UniProt P21554). Description: [3H]CP55940 radioligand binding, CHO cell membranes. The conditions noted are these: 0.7 nM [3H]CP55940; indomethacin between 10 nM and 10 μM, bell-shaped, greatest at 10 and 100 nM. The protocol:
Binding was initiated by the addition of transfected human CB1R or CB2R CHO cell membranes (50 μg protein per well). All assays were performed at 37°C for 60 min before termination by the addition of ice-cold Tris binding buffer, followed by vacuum filtration using a 24-well sampling manifold (Brandel Cell Harvester; Brandel Inc., Gaithersburg, MD, United States) and Brandel GF/B filters that had been soaked in wash buffer at 4°C for at least 24 h. Each reaction well was washed six times with a 1.2 mL aliquot of Tris binding buffer. The filters were oven-dried for 60 min and then placed in 3 ml of scintillation fluid (Ultima Gold XR, PerkinElmer, Seer Green, Buckinghamshire, United Kingdom). Radioactivity was quantified by liquid scintillation spectrometry.

Series [3] deals with T1, hCB1R. It is filed as binding. The protocol: The assay was terminated by rapid filtration onto GF/B filters pre-soaked in assay buffer using a Brandel cell harvester. The filters were washed six times with the ice-cold buffer before being dried in a heated cabinet. Filters were placed in vials to which 3 mL Ultima Gold scintillation fluid was added. The radioactivity in each vial was then counted for 3 min in a Tri-Carb liquid scintillation counter.

Series [4] concerns the target T1, hCB1R. Description: [35S]GTPγS binding assay, CHO cell membranes. The conditions noted are these: 1 μM indomethacin in the presence of 1 nM and 10 μM AEA. It is filed as biochemical. The protocol:
(§1) Human CB1R and CB2R CHO cell membranes (25 μg protein) were preincubated for 30 min at 30°C with adenosine deaminase (0.5 IU/ml). […] Binding was initiated by the addition of [^35S]GTPγS. Non-specific binding was measured in the presence of 30 μM GTPγS. The reaction was terminated by rapid vacuum filtration (50 mM Tris–HCl; 50 mM Tris–Base; 0.1% BSA) using a 24-well sampling manifold (cell harvester; Brandel, Gaithersburg, MD, United States) and GF/B filters (Whatman, Maidstone, United Kingdom) that had been soaked in buffer (50 mM Tris–HCl; 50 mM Tris–Base; 0.1% BSA) for at least 24 h. Each reaction tube was washed six times with a 1.2-mL aliquot of ice-cold wash buffer. The filters were oven-dried for at least 60 min and then placed in 3 mL of scintillation fluid (Ultima Gold XR, PerkinElmer, Cambridge, United Kingdom). Radioactivity was quantified by liquid scintillation spectrometry.

For series [5], the target named is T1, hCB1R. The class given is cell-based. To be noted: indomethacin alone. The procedure:
(§2) Cells were fixed for 10 min at room temperature with 4% paraformaldehyde and washed three times with 0.1 M PBS for 5 min each. Cells were incubated with blocking solution (PBS, 20% Odyssey blocking buffer, and 0.1% TritonX-100) for 1 h at room temperature. […] Cells were washed three times with PBS for 5 min each. Cells were incubated in IR^CW700dye or IR^CW800dye (1:500; Rockland Immunochemicals) and washed three times with PBS for 5 min each. Analyses were conducted using the Odyssey Imaging system and software (version 3.0; Li-Cor).

Series [6] addresses T1, hCB1R. It is filed as cell-based. To be noted: indomethacin alone. The protocol:
(§3) Briefly, 48 h post-transfection cells were washed twice with cold PBS and suspended in BRET buffer [PBS supplemented with glucose (1 mg/mL), benzamidine (10 mg/mL), leupeptin (5 mg/mL), and a trypsin inhibitor (5 mg/mL)]. Cells were treated with compounds as indicated (PerkinElmer) and coelenterazine 400a substrate (50 μM; Biotium, Hayward, CA, United States) was added.
This is another data set of the same source.

The target of series [7] is T1, hCB1R. The class given is cell-based. The conditions noted are these: indomethacin alone. The procedure:
(§4) HEK-CRE cells were transfected with CB1R-GFP^2 or CB2R-GFP^2. Forty-eight hours post-transfection cells were washed twice with cold PBS and suspended in BRET buffer. Cells were dispensed into 96-well plates (10,000 cells/well) and treated with 10 μM forskolin and ligands (PerkinElmer). Media was aspirated from cells and cells were lysed with passive lysis buffer for 20 min at room temperature (Promega, Oakville, ON, Canada).
The source holds these as a separate data set.

Series [8] concerns hCB1R. Description: Bias analysis by operational model, ΔΔLogR (cAMP–βarrestin2), CHO cells. The class given is cell-based, human. To be noted: reference agonist CP55940. The procedure:
Concentration-response curves (CRC) were fit using non-linear regression with variable slope (four parameters) and used to calculate EC50, Emin, and Emax (GraphPad, Prism, v. 8.0). […] Statistical analyses were conducted by Student’s one

The test system of series [9] is C57BL/6J mice. Description: Tetrad: tail flick latency (anti-nociception). The class given is in vivo, mouse. The conditions noted are these: for tail flick latency compared to vehicle: single agent i.p. (CP55940 0.1 mg/kg; indomethacin 2 mg/kg), 0.5, 1 and 4 h. The procedure: (§5) Seven-week old, male, C57BL/6J mice (mean weight 25.2 ± 0.5 g) were purchased from The Jackson Laboratory (Bar Harbor, ME, United States). Animals were group housed (5 per cage) with ad libitum access to food, water, and environmental enrichment and maintained on a 12 h light/dark cycle. […] All protocols were in accordance with the guidelines detailed by the Canadian Council on Animal Care (CCAC; Ottawa ON: Vol. 1, 2nd Ed., 1993; Vol. 2, 1984), approved by the Carleton Animal Care Committee at Dalhousie University. In keeping with the ARRIVE guidelines, power analyses were conducted to determine the minimum number of animals required for the study and animals were purchased – rather than bred – to limit animal waste, and all assessments of animal behavior were made by individuals blinded to treatment group ([Kilkenny et al., 2010]).
Anti-nociception was determined by assessing tail flick latency immediately prior to injection and 0.5, 1, and 4 h following injection. Mice were restrained with their tails placed ∼1 cm into water held at 52°C and the time until the tail was removed was recorded as tail flick latency (s). Observations were ended at 10 s.

The test system of series [10] is C57BL/6J mice. The experiment in a line: Tetrad: catalepsy, ring holding assay. The class given is in vivo, mouse. To be noted: for catalepsy: single agent i.p. (CP55940 0.1 mg/kg; indomethacin 2 mg/kg), 1 and 4 h. The protocol:
as §5
Catalepsy was assessed in the ring holding assay immediately prior to injection and 1 and 4 h following injection. The mice were placed such that their forepaws clasped a 5 mm ring positioned 5 cm above the surface of the testing space. The length of time the ring was held was recorded (s). The trial was ended if the mouse turned its head or body, or made three consecutive escape attempts.

The subject of series [11] is C57BL/6J mice. The experiment in a line: Tetrad: internal body temperature. The class given is in vivo, mouse. To be noted: 0.5 and 1 h; for body temperature compared to vehicle: single agent i.p. (CP55940 0.1 mg/kg; indomethacin 2 mg/kg). The protocol:
as §5
Internal body temperature was measured via rectal thermometer immediately prior to injection and 0.5, 1, and 4 h following injection.

The subject of series [12] is C57BL/6J mice. The experiment in a line: Tetrad: locomotion, open field test. It is filed as in vivo, mouse. The procedure:
as §5
Locomotion was assessed in the open field test immediately prior to injection and 1 and 4 h following injection. Mice were placed in an open space 90 cm × 60 cm and total distance was recorded for 5 min.

On the set-up of series [13]: method as in Remmel et al., 2004. The conditions noted are these: ref Remmel et al., 2004; cited from earlier work.
The subject of a further series is ICR mice. Further details: method as in Wiley et al. (2006). The conditions noted are these: indomethacin 10 or 30 mg/kg, AEA 30 mg/kg, ref Wiley et al. (2006); cited from earlier work.
Series [14] has as its target T2, hCB2R (Homo sapiens, UniProt P34972). Description: [35S]GTPγS binding assay, CHO cell membranes. It is filed as biochemical. Details: expressed in transfected cells; HEK-CRE reporter cells for the cAMP luciferase assay. To be noted: data not shown. The protocol: as §1
Series [15] addresses T2, hCB2R. Description: cAMP luciferase reporter assay, HEK-CRE hCB2R-GFP2. The class given is cell-based. Further details: expressed in transfected cells; HEK-CRE reporter cells for the cAMP luciferase assay. The conditions noted are these: indomethacin alone. The protocol: as §4
Series [16] addresses T2, hCB2R. The experiment in a line: βarrestin1 recruitment, BRET2, HEK293A hCB2R-GFP2. The class given is cell-based. Details: expressed in transfected cells; host or cells: HEK293A cells, transient (Lipofectamine 2000). To be noted: indomethacin alone. The procedure:
as §3

Series [17] deals with T2, hCB2R. The experiment in a line: ERK1/2 phosphorylation, in-cell western, HEK293A hCB2R-GFP2. The class given is cell-based. Further details: expressed in transfected cells; host or cells: HEK293A cells; HEK-CRE reporter cells for the cAMP luciferase assay. The conditions noted are these: indomethacin alone. The protocol: as §2
The target of series [18] is T2, hCB2R. The experiment in a line: PLCβ3 phosphorylation, in-cell western, HEK293A hCB2R-GFP2. It is filed as cell-based. Details: expressed in transfected cells; host or cells: HEK293A cells; HEK-CRE reporter cells for the cAMP luciferase assay. The conditions noted are these: indomethacin alone. The procedure: as §2
Series [19] concerns CB1R. Details: method as in Laprairie et al., 2019. To be noted: ref Laprairie et al., 2019; cited from earlier work.

T2 sequence (P34972 whole entry): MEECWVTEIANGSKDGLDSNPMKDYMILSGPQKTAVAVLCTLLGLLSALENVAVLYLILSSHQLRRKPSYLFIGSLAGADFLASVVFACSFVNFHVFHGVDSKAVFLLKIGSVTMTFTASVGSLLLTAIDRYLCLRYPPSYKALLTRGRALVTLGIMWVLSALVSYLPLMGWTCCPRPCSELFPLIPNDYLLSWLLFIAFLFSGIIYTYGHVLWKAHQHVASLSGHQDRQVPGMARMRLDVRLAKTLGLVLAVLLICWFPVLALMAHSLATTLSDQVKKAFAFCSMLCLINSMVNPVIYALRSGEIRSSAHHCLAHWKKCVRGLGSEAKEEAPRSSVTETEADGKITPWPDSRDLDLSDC
T1 sequence (P21554 whole entry): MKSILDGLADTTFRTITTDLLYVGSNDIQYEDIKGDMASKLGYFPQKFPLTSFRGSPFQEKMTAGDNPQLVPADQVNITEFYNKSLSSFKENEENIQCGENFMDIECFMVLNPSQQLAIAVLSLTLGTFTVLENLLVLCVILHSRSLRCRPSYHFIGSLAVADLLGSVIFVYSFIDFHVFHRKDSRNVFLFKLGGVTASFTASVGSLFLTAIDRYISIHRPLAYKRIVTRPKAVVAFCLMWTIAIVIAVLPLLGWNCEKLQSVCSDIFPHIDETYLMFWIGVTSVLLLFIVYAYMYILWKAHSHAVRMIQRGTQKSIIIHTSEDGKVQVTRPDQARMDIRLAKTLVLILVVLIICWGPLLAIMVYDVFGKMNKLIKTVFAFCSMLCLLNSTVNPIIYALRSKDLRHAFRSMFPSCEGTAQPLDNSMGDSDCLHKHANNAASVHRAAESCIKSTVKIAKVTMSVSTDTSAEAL

In the case of `CCCCC[C@H](O)/C=C/C=C\C=C\C=C\[C@@H](O)[C@@H](O)CCCC(=O)O` [Lipoxin A4, lipoxin A4], the potency in vitro entry in the series on CB1R [1] is “high micromolar”.
With `COc1ccc2c(c1)c(CC(=O)O)c(C)n2C(=O)c1ccc(Cl)cc1` [Indomethacin, indomethacin], the “[3H]CP55940 binding to hCB1R” value at hCB1R [2] is recorded as “enhanced”. At hCB1R [3] (1 μM indomethacin), the “rate of dissociation of [3H]CP55940 compared to vehicle” value is on record as “did not change”. In addition, the “t1/2 (min) (95% CI) of [3H]CP55940 dissociation” value at hCB1R [3] (+1 μM indomethacin, 24°C, dissociation started with 1 μM unlabeled CP55940) is given as 4.67 (3.17–8.80) min. Moreover, at hCB1R [4], the “[35S]GTPγS binding to hCB1R” value is “enhanced”. Moreover, on hCB1R [5], the “hCB1R-dependent ERK1/2 phosphorylation” value is reported as “did not alter” and the “hCB1R-dependent PLCβ3 phosphorylation” value is listed as “did not alter”. At hCB1R [6], the “hCB1R-dependent βarrestin1 recruitment” value is reported as “did not alter”. Also, at hCB1R [7], the “hCB1R-dependent cAMP levels” value is “did not alter”. Moreover, in the series on hCB1R [8] (indomethacin in the presence of AEA), the “bias between cAMP inhibition and βarrestin2 recruitment (ΔΔLogR)” value is “selectively enhance inhibition of cAMP”. The “bias between cAMP inhibition and βarrestin2 recruitment (ΔΔLogR)” value with hCB1R [8] (indomethacin in the presence of CP55940) was “did not display bias”. Also, in the series on C57BL/6J mice [9] (CP55940 0.1 mg/kg + indomethacin 4 mg/kg i.p., 1 h), the “tail flick latency compared to CP55940 or indomethacin alone” value is recorded as “increased”. The “tail flick latency compared to vehicle” value with C57BL/6J mice [9] was “increased”. Moreover, the “catalepsy time compared to CP55940 alone” value with C57BL/6J mice [10] (2 and 4 mg/kg indomethacin with CP55940 0.1 mg/kg i.p., 1 h) is reported as “significantly increased”. Further, the catalepsy result with C57BL/6J mice [10] is reported as “not”. In addition, in the series with C57BL/6J mice [11] (CP55940 0.1 mg/kg + indomethacin 4 mg/kg i.p.), the “body temperature compared to CP55940 or indomethacin alone” value is given as “further reduced”. In the series on C57BL/6J mice [11], the “body temperature compared to vehicle” value is reported as “reduced”. For the same compound, the “locomotion compared to CP55940 or indomethacin alone” value in the series on C57BL/6J mice [12] (CP55940 0.1 mg/kg + indomethacin 4 mg/kg i.p., 4 h) is on record as “further reduced”. Also, in [13], the t1/2 in mouse is on record as 51 min. For the same compound, in the series on ICR mice, the “AEA-dependent hypolocomotion, anti-nociception, hypothermia, and immobility” value is “enhanced”. Also, the “[35S]GTPγS binding to hCB2R” value on hCB2R [14] is listed as “did not effect”. Also, the “hCB2R-dependent cAMP inhibition” value at hCB2R [15] is “did not alter”. In addition, on hCB2R [16], the “hCB2R-dependent βarrestin1 recruitment” value is “did not alter”. Besides, on hCB2R [17], the “hCB2R-dependent ERK1/2 phosphorylation” value is “did not alter”. For the same compound, the “hCB2R-dependent PLCβ3 phosphorylation” value on hCB2R [18] is on record as “did not alter”.
For `C=C(C)[C@@H]1CCC(C)=C[C@H]1c1c(O)cc(CCCCC)cc1O` [CBD, cannabidiol], in the series on CB1R [19], the “concentrations that reduce CP55940 binding” value was > 1 µM.
With `CCCCCCC(C)(C)c1ccc([C@@H]2C[C@H](O)CC[C@H]2CCCO)c(O)c1` [CP55940, (-)-cis-3-[2-Hydroxy-4-(1,1-dimethylheptyl)phenyl]-trans-4-(3-hydroxypropyl)cyclohexanol], the “tail flick latency compared to vehicle” value in the series with C57BL/6J mice [9] is on record as “increased”. The catalepsy result in the series with C57BL/6J mice [10] was “increased”. In the series on C57BL/6J mice [11], the “body temperature compared to vehicle” value is reported as “reduced”. For the same compound, the “locomotion (distance traveled in the open field) compared to vehicle” value with C57BL/6J mice [12] (CP55940 0.1 mg/kg i.p., 1 and 4 h) is “reduced”.
